Test results from US20140073637A1, “AMINO-SUBSTITUTED-ALKYLOXY-BENZO[E]PYRIDO[4,3-B]INDOLE DERIVATIVES AS NEW POTENT KINASE INHIBITORS” (INSTITUT CURIE, priority 2011, published 2014).
Like-named read-outs stand apart in the source and are kept apart here.

How the values were obtained:
U373 = assay: Cell viability test (CellTiter 96 AQueous One Solution); format: cell-based; details: Homo sapiens, U373 MG; U373 (Glioblastoma); 72 h of treatment; read-out: IC50 (cell line viability)
Procedure: (§1) H358, H322 (lung cancer cells), U373 (glioblastomes) and HeLa ([…]) were grown in DMEM (1.5 g/L glucose) whereas HL60 (human myeloid cell line) cells were in RPMI 1640. U2OS (a human osteosarcoma cell line) cells were cultured in McCoy's Medium 5 A and liver cells (SK Hep 1) in DMEM (4 g/L glucose, (Gibco-Invitrogen). Media (Gibco-Invitrogen), were supplemented with 10% heat-inactivated foetal bovine serum (Gibco-Invitrogen), L-glutamine (2 mM), penicillin (100 UI/ml) and streptomycin (100 μg/ml).
(§2) Cell proliferation assays were conducted in 96 well culture plates. Assays were run in triplicate. Cell viability was estimated upon 72 h of treatment with varying concentrations of compound by addition of CellTiter 96Queous one Solution Reagent (Promega) directly to culture wells under conditions defined by the manufacturer.

U2OS = assay: as above; format: cell-based; details: Homo sapiens; U2OS (Osteosarcoma); 72 h of treatment; read-out: IC50 (cell line viability) (converted)
Procedure: as §1, §2

H358 cells = assay: as above; format: cell-based; details: for IC50: Homo sapiens, NCI-H358, H358 (Lung), 72 h of treatment, read-out: IC50 (cell line viability)
Procedure: as §1, §2

HL60 = assay: as above; format: cell-based; details: Homo sapiens, HL-60; HL60 (Leukemia); 72 h of treatment; read-out: IC50 (cell line viability)
Procedure: as §1, §2

121 kinases = assay: Kinase profiling on a set of 121 kinases; format: biochemical; details: for Known Targets (%): kinases presenting the highest inhibitions, lists not exhaustive
Procedure: FIG. 1A: The potential inhibition of C14 was tested against 121 kinases, in vitro, at the concentration of 1 μM. The kinase activities, in the presence of C14, are represented, each kinase being represented by a vertical bar. Only 18 kinases have less than 30% activity in the presence of C14.
(§3) The specificity of C14 was tested, in vitro, against 121 kinases representative of the kinome. Assays run in duplicate, at the concentration of 1 μM, were performed by MRC (Dundee, UK). Results are represented in FIG. 1. The main targets are highlighted in FIG. 1B.
(§4) The profiling was performed at the MRC (Dundee University), in duplicate, on a set of 121 kinases. The panel is representative of the major different classes of kinases. Compounds were used at the concentration of 1 μM. In vitro, IC50 were determined on recombinant kinases by Reaction biology Corp (USA).

HeLa cells = assay: Cell viability / antiproliferative assay; format: cell-based; details: Homo sapiens, HeLa
From the text: Antiproliferative assays with HeLa cells have been performed with the preferred compounds and compared to the C1 and C2. The average of three independent experiments is shown. IC50 obtained with C1 and C2 were previously reported in Hoang et al, 2009, and are indicated for comparison. The lateral chain of each molecule is recalled, knowing that all the molecules have an oxo group at position 11. IC50 are indicated, i.e. the concentration that induced 50% death.
as §1, §2

Aurora A = biological target: T1, Aurora A (Homo sapiens, UniProt O14965); assay: Kinase profiling in vitro at 1 μM; format: biochemical; details: for effect on kinase activity (FIG. 2, in words) / remaining activity at 1 µM: Aurora A; for effect on kinase activity (FIG. 2, in words): recombinant kinase in vitro; for remaining activity at 1 µM: compound at 1 μM, read-out: percentage of remaining activity of recombinant kinase
T1 sequence (O14965 1-403): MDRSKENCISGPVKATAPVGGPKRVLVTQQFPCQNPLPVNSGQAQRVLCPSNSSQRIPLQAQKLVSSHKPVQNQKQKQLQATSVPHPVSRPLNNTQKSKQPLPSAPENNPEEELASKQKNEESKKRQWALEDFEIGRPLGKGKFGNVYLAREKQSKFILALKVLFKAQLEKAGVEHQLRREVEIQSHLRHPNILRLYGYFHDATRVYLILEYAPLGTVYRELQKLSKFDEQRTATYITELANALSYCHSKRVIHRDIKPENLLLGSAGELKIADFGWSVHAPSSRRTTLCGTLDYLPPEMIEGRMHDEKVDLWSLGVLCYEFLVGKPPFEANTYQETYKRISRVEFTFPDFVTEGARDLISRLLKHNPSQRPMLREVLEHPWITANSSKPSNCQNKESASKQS
Procedure: (§5) Assays were run in vitro against recombinant kinases. The activity is reported for each kinase, grey histograms for CH21, white for C14 and gradation grey for C1. […] Therefore, C1 and C14 affect differently the Aurora kinase family.
as §3
In addition, the percentage of remaining activity of recombinant kinases Aurora kinases A and B and Checkpoint kinases 1 and 2 at the concentration of 1 μM of C1, C2 and C14 have been determined.
as §4

RSK2 = RSK2 (Homo sapiens, UniProt P51812); assay: In vitro assay against recombinant kinases (FIG. 2); format: biochemical
Procedure: as §5, §4

RSK1 = RSK1 (Homo sapiens, UniProt Q15418); assay: as above; format: biochemical
Procedure: as §5, §4

Src = Src (Homo sapiens, UniProt P12931); assay: as above; format: biochemical
Procedure: as §5, §4

[1] = 72 h, HeLa (Cervix), 72 h of treatment, read-out: IC50 (cell line viability)

Src, sequence (P12931 whole entry, species assumed): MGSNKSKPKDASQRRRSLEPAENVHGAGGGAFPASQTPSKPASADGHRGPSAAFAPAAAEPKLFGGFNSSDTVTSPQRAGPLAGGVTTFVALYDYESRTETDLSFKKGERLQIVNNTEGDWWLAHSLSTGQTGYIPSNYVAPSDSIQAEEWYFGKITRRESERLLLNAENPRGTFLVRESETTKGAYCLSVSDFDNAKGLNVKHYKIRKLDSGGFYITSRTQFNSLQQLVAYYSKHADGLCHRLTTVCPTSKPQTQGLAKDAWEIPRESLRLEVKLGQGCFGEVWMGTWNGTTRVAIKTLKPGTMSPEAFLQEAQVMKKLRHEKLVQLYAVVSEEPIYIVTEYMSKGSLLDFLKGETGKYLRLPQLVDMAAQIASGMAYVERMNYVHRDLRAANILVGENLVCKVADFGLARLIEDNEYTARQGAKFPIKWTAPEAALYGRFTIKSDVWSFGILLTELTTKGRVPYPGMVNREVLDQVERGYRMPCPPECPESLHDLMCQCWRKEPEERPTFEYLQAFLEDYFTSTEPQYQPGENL
RSK2, sequence (P51812 whole entry): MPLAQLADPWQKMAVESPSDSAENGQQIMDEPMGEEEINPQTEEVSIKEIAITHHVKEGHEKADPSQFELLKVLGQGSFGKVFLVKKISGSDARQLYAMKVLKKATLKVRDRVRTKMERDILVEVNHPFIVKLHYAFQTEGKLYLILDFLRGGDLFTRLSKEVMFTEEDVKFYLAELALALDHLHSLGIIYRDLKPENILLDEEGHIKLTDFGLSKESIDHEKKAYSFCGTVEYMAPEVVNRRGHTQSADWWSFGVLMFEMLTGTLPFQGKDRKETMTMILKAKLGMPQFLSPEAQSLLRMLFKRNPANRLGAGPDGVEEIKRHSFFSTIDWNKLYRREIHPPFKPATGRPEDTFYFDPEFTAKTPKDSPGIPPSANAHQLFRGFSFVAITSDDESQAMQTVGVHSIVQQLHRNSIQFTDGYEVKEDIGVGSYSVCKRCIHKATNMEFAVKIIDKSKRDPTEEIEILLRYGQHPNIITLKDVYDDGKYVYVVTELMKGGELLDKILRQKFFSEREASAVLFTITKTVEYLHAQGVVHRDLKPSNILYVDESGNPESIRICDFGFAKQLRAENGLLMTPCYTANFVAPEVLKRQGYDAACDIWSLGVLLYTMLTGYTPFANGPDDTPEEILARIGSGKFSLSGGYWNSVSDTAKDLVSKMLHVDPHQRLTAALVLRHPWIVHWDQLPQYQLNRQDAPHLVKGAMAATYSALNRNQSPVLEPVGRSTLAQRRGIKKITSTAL
RSK1, sequence (Q15418 whole entry, species assumed): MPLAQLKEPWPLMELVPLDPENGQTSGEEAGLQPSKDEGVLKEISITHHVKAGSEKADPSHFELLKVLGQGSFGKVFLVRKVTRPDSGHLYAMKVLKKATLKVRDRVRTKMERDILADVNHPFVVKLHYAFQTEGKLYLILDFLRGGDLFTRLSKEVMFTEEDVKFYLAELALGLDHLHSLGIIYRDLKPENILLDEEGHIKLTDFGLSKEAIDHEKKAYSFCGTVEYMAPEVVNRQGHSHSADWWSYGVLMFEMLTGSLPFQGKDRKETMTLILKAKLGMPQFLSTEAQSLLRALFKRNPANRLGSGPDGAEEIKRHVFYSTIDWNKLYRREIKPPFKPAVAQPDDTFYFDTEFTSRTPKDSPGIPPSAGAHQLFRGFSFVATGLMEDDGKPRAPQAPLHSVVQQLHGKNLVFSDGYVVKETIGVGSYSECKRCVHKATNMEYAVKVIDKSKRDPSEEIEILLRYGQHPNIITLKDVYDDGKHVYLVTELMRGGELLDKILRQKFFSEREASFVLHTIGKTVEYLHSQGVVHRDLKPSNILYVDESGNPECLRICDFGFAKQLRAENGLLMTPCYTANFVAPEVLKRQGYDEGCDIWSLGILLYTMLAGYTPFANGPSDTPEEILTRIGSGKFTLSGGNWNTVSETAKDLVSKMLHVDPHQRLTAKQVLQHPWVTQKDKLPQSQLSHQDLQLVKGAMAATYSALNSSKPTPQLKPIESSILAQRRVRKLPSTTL

SMILES | IC50 (U373) | IC50 (U2OS) | IC50 (H358 cells) | IC50 (HL60) | Known Targets (%) (121 kinases) | IC50 (HeLa cells; [1]) | effect on kinase activity (FIG. 2, in words) (Aurora A) | effect on kinase activity (FIG. 2, in words) (RSK2) | effect on kinase activity (FIG. 2, in words) (RSK1) | effect on kinase activity (FIG. 2, in words) (Src) | remaining activity at 1 µM (Aurora A) | death of cycling cells (H358 cells; 0.5 μM, cycling H358 cells) | number of kinases with less than 30% activity in the presence of compound (121 kinases; 121 kinases tested in vitro at 1 μM) | IC50 (HeLa cells; HeLa cells, average of three independent experiments, concentration that induced 50% death, read-out: IC50 (in nM), antiproliferative assay) | remaining activity (Aurora A; at 1 μM)
Cc1cncc2c1[nH]c1ccc3cc(OCCN(C)C)ccc3c12 [CH21, 3-(2-N,N-dimethylaminoethyloxy)-8-methyl-7H-benzo[e]pyrido(4,3-b)indole] | 360 nM | 1100 nM | 450 nM | > 2000 nM | NUAK1 TrkA Tak1 Gck Flt3 | 350 nM | None of these kinases were significantly affected | None of these kinases were significantly affected | None of these kinases were significantly affected | None of these kinases were significantly affected | – | – | – | – | –
CCc1c[nH]c(=O)c2c1[nH]c1ccc3cc(OC)ccc3c12 [Compound C1, reference compound] | > 1000 nM | > 1000 nM | 145 nM | 350 nM | Aurora A Aurora B Chk2 FLT3 Melk | 960 nM | highly inhibited | highly inhibited | highly inhibited | highly inhibited | 7% | – | – | – | –
Cc1c[nH]c(=O)c2c1[nH]c1ccc3cc(OCCN(C)C)ccc3c12 [Compound C14, 3-(2-N,N-Dimethylaminoethoxy)-8-methyl-7H,10H-benzo[e]pyrido(4,3-b)indol-11-one] | 3100 nM | 720 nM | 470 nM | > 2000 nM | Aurora B NUAK1 TrkA Tak1 Gck Chk1 Chk2 | 110 nM | not affected | not affected | not affected | not affected | 76% | more than 50% | 18 | 170 ± 82 nM | 76%
